From US8288421B2, “Phenylaminopyridines” (Basilea Pharmaceutica AG, priority 2004, dated 2012)

Experiments:
HeLa [1] = assay: Hoechst 33342 nuclear staining; format: cell-based, human; settings: 48 h read-out
Protocol: (§1) This assay is performed in 96 well tissue culture plates. Appropriate number of cells (adherent cells: 3-5*10^3, suspension cells: 8-10*10^3) are being seeded out in 80 μl complete medium. Adherent cells are incubated for 24 h for proper spreading out before addition of test compounds while suspension cells are immediately treated with test compounds after seeding out. The test compounds are added in 20 μl complete medium containing max 5% DMSO. The final compound concentrations in the assays are in the range of 0.001 μM-10 μM. […] The assay plates are then further incubated for 30 minutes and subsequently analyzed with a standard inverted fluorescence microscope.
(§2) The readout allows the determination of the fraction of apoptotic nuclei as well as other morphological criteria specific for apoptosis as a function of the treatment. The scores A, B, C and D are explained at the end of the Table.

Jurkat [2] = assay: Hoechst 33342 nuclear staining; format: cell-based, human; settings: 48 h read-out
Protocol: as §1, §2

PBL [3] = assay: Hoechst 33342 nuclear staining; format: cell-based, human; settings: 48 h read-out
Protocol: as §1, §2

MRC5 [4] = assay: Hoechst 33342 nuclear staining; format: cell-based; settings: MRC5, 48 h read-out
Protocol: as §1, §2

Jily [5] = assay: Hoechst 33342 nuclear staining; format: cell-based; settings: 48 h read-out
Protocol: as §1, §2

HeLa [6] = assay: MTS proliferation assay; format: cell-based, human; settings: 72 h read-out
Protocol: (§3) The assay is performed in 96 well tissue culture plates. The cells (range: 1.5*10^3-10^4) are seeded out in 80 μl complete medium 24 h prior to compound treatment. The test compounds are added in 20 μl complete medium containing max 5% DMSO. The final compound concentrations in the assays are in the range of 0.001 μM-10 μM. The assay plates are incubated for 72 h at culture conditions. The MTS reagent is prepared according to the manufacturer's protocol (Promega G1111). 20 μl MTS reagent are added to each well, the assay plates are quickly spun and incubated for another 3 h at culture conditions. Subsequently, the plates are shortly shaked and absorption measured with a microplate-reader at 492 nm. The scores A, B, C and D are explained at the end of the Table.

HT1080 = assay: MTS proliferation assay; format: cell-based, human; settings: HT1080, 72 h read-out
Protocol: as §3

Jurkat [7] = assay: MTS proliferation assay; format: cell-based, human; settings: 72 h read-out
Protocol: as §3

HeLa [8] = assay: PI staining for cell cycle distribution; format: cell-based, human; settings: 24 h read-out, read-out: PI staining for cell cycle distribution EC50 (G2M arrest), HeLa
Protocol: 1-2*10^5 cells are seeded into 24 well tissue culture plates and incubated for 24 h prior to compound addition. Compounds are added for 24 h in a final concentration of 3 μM or 10 μM. Adherent cells are harvested by trypsinization. The cell suspensions are fixed by adding 2 parts ice cold ethanol 100% while vortexing. Then the samples are stored for >2 h at −20° C. Subsequently the cells are washed with PBS once and resuspended in 250 μl PBS containing 50 μg/ml PI (Calbiochem #537059), then the samples are incubated at 37° C. for 30 minutes and subsequently analyzed on a FACSCalibur™ monitoring linear PI fluorescence activity on FL2. The readout allows the detection of a possible direct or indirect influence of the tested compounds on the cell cycle. All active test compounds induce an arrest of the cell population in the G2M phase. This effect has been quantified by running the test at different concentrations. In Table 4 EC50 values are tabulated.

HeLa [9] = assay: Mitochondrial membrane potential (JC-1); format: cell-based, human; settings: 48 h read-out
Protocol: as §1, with “20 μal” for “20 μl”, “DMSO.” for “DMSO. The final compound concentrations in the assays are in the range of 0.001 μM-10 μM.”, “fluorescence microscope by using the FITC and TRITC filters.” for “fluorescence microscope.”
(§4) The scores A, B, C and D are explained at the end of the Table.

MCF7 = assay: Mitochondrial membrane potential (JC-1); format: cell-based, human; settings: MCF7, 48 h read-out
Protocol: as §1, with “20 μal” for “20 μl”, “DMSO.” for “DMSO. The final compound concentrations in the assays are in the range of 0.001 μM-10 μM.”, “fluorescence microscope by using the FITC and TRITC filters.” for “fluorescence microscope.”
as §4

Jurkat [10] = assay: Mitochondrial membrane potential (JC-1); format: cell-based, human; settings: 48 h read-out
Protocol: as §1, with “20 μal” for “20 μl”, “DMSO.” for “DMSO. The final compound concentrations in the assays are in the range of 0.001 μM-10 μM.”, “fluorescence microscope by using the FITC and TRITC filters.” for “fluorescence microscope.”
as §4

PBL [11] = assay: Mitochondrial membrane potential (JC-1); format: cell-based, human; settings: 48 h read-out
Protocol: as §1, with “20 μal” for “20 μl”, “DMSO.” for “DMSO. The final compound concentrations in the assays are in the range of 0.001 μM-10 μM.”, “fluorescence microscope by using the FITC and TRITC filters.” for “fluorescence microscope.”
as §4

MRC5 [12] = assay: MTS proliferation assay; format: cell-based; settings: MRC5, 72 h read-out
Protocol: as §3

Jily [13] = assay: MTS proliferation assay; format: cell-based; settings: 72 h read-out
Protocol: as §3

DOHH2 = assay: Mitochondrial membrane potential (JC-1); format: cell-based; settings: DOHH2, 48 h read-out
Protocol: as §1, with “20 μal” for “20 μl”, “DMSO.” for “DMSO. The final compound concentrations in the assays are in the range of 0.001 μM-10 μM.”, “fluorescence microscope by using the FITC and TRITC filters.” for “fluorescence microscope.”
as §4

HeLa [14] = assay: Colony Forming Units; format: cell-based, human; settings: read-out after 6 days
Protocol: (§5) Appropriate numbers of cells (100-150 cells, dependent on the cell type) are being seeded out in 1 ml complete medium into 6-well plates and allowed to attach for 48 h. The compounds are added after 48 h in 500 μl solution. The concentrations are in the range of 0.001 μM-3 μM. Control plates receive the same volume of medium containing the appropriate amount of DMSO. The plates are incubated for 6 days at cell culture conditions and subsequently scored for growth of colonies (containing more than 30 cells) by using a microscope.

H460 = assay: Colony Forming Units; format: cell-based, human; settings: H460, read-out after 6 days
Protocol: as §5

SMILES | EC50 (HeLa [1]; Homo sapiens) | EC50 (Jurkat [2]; Homo sapiens) | EC50 (PBL [3]; Homo sapiens) | EC50 (MRC5 [4]; Homo sapiens) | EC50 (Jily [5]) | IC50 (HeLa [6]; Homo sapiens) | IC50 (Jily [13]) | EC50 (HeLa [1]) | EC50 (Jurkat [2]) | EC50 (PBL [3]) | EC50 (MRC5 [4]) | IC50 (HeLa [6]) | IC50 (HT1080) | EC50 (HeLa [8]) | EC50 (HeLa [9]) | EC50 (MCF7) | EC50 (Jurkat [10]) | EC50 (PBL [11]) | IC50 (MRC5 [12]) | EC50 (DOHH2) | other results
COc1ccc(Nc2cncc(-c3cccc(NS(C)(=O)=O)c3)c2)cc1 [Example 1, 3-(m-Mesylaminophenyl)-5-(p-methoxyphenylamino)pyridine] | 0.1 to 1 µM | 0.1 to 1 µM | > 1 µM | 0.1 to 1 µM | 0.1 to 1 µM | 0.1 to 1 µM | 0.01 to 0.1 µM | – | – | – | – | – | – | – | – | – | – | – | – | – | IC50 (HT1080; Homo sapiens, HT-1080): 0.1 to 1 µM; IC50 (Jurkat [7]; Homo sapiens): 0.01 to 0.1 µM; EC50 (HeLa [8]; Homo sapiens): 0.1 to 1 µM; EC50 (HeLa [9]; Homo sapiens): 0.1 to 1 µM; EC50 (MCF7; Homo sapiens): > 1 µM; EC50 (Jurkat [10]; Homo sapiens): 0.1 to 1 µM; EC50 (PBL [11]; Homo sapiens): > 1 µM; IC50 (MRC5 [12]; Homo sapiens): 0.1 to 1 µM; melting point: 240 °C; EC50 (DOHH2; Homo sapiens, DOHH-2): 0.1 to 1 µM
COc1ccc(Nc2cncc(-c3cccc(NC(=O)c4ccccc4)c3)c2)cc1 [Example 2, 3-(m-Benzoylaminophenyl)-5-(p-methoxyphenylamino)pyridine] | 0.01 to 0.1 µM | 0.01 to 0.1 µM | > 1 µM | > 1 µM | 0.01 to 0.1 µM | 0.01 to 0.1 µM | < 0.01 µM | – | – | – | – | – | – | – | – | – | – | – | – | – | IC50 (HT1080; Homo sapiens, HT-1080): 0.01 to 0.1 µM; IC50 (Jurkat [7]; Homo sapiens): < 0.01 µM; EC50 (HeLa [8]; Homo sapiens): 0.1 to 1 µM; EC50 (HeLa [9]; Homo sapiens): 0.01 to 0.1 µM; EC50 (MCF7; Homo sapiens): > 1 µM; EC50 (Jurkat [10]; Homo sapiens): 0.01 to 0.1 µM; EC50 (PBL [11]; Homo sapiens): > 1 µM; IC50 (MRC5 [12]; Homo sapiens): 0.01 to 0.1 µM; IC50 (HeLa [14]; Homo sapiens, 144 h): 0.1 to 1 µM; IC50 (H460; Homo sapiens, NCI-H460, 144 h): 0.1 to 1 µM; melting point: 135 to 140 °C; EC50 (DOHH2; Homo sapiens, DOHH-2): 0.01 to 0.1 µM
COc1ccc(Nc2cncc(-c3cccc(Nc4ccccn4)c3)c2)cc1 [Example 3, 5-(p-Methoxyphenylamino)-3-(m-[2-pyridylamino]phenyl)pyridine] | 0.1 to 1 µM | 0.01 to 0.1 µM | > 1 µM | 0.1 to 1 µM | 0.01 to 0.1 µM | 0.1 to 1 µM | 0.01 to 0.1 µM | – | – | – | – | – | – | – | – | – | – | – | – | – | IC50 (HT1080; Homo sapiens, HT-1080): 0.01 to 0.1 µM; IC50 (Jurkat [7]; Homo sapiens): 0.01 to 0.1 µM; EC50 (HeLa [9]; Homo sapiens): 0.1 to 1 µM; EC50 (MCF7; Homo sapiens): 0.1 to 1 µM; EC50 (Jurkat [10]; Homo sapiens): 0.01 to 0.1 µM; EC50 (PBL [11]; Homo sapiens): > 1 µM; IC50 (MRC5 [12]; Homo sapiens): 0.1 to 1 µM; melting point: 161 to 165 °C; EC50 (DOHH2; Homo sapiens, DOHH-2): 0.01 to 0.1 µM
CCS(=O)(=O)Nc1cccc(-c2cncc(Nc3ccc(OC)cc3)c2)c1 [Example 4] | – | – | – | – | 0.01 to 0.1 µM | – | 0.01 to 0.1 µM | 0.1 to 1 µM | 0.01 to 0.1 µM | > 1 µM | 0.01 to 0.1 µM | 0.1 to 1 µM | 0.01 to 0.1 µM | 0.1 to 1 µM | 0.1 to 1 µM | > 1 µM | < 0.01 µM | > 1 µM | 0.1 to 1 µM | < 0.01 µM | IC50 (Jurkat [7]): 0.01 to 0.1 µM; IC50 (HeLa [14]): 0.01 to 0.1 µM; IC50 (H460): 0.01 to 0.1 µM
COc1ccc(Nc2cncc(-c3cccc(NS(=O)(=O)CCCCl)c3)c2)cc1 [Example 7] | – | – | – | – | 0.01 to 0.1 µM | – | 0.01 to 0.1 µM | 0.01 to 0.1 µM | 0.01 to 0.1 µM | > 1 µM | 0.01 to 0.1 µM | 0.1 to 1 µM | 0.1 to 1 µM | 0.1 to 1 µM | 0.1 to 1 µM | > 1 µM | 0.01 to 0.1 µM | > 1 µM | 0.1 to 1 µM | 0.01 to 0.1 µM | IC50 (Jurkat [7]): 0.01 to 0.1 µM
COc1ccc(Nc2cncc(-c3cccc(NC(=O)c4cccnc4Cl)c3)c2)cc1 [Example 11] | – | – | – | – | 0.01 to 0.1 µM | – | 0.01 to 0.1 µM | 0.01 to 0.1 µM | 0.01 to 0.1 µM | > 1 µM | 0.01 to 0.1 µM | 0.01 to 0.1 µM | 0.01 to 0.1 µM | < 0.01 µM | 0.01 to 0.1 µM | > 1 µM | 0.01 to 0.1 µM | > 1 µM | 0.01 to 0.1 µM | 0.01 to 0.1 µM | IC50 (Jurkat [7]): 0.01 to 0.1 µM
COc1ccc(Nc2cncc(-c3cccc(NC(=O)c4ccncc4)c3)c2)cc1 [Example 16] | – | – | – | – | < 0.01 µM | – | – | 0.01 to 0.1 µM | < 0.01 µM | > 1 µM | < 0.01 µM | 0.01 to 0.1 µM | < 0.01 µM | 0.01 to 0.1 µM | 0.01 to 0.1 µM | 0.1 to 1 µM | < 0.01 µM | > 1 µM | < 0.01 µM | < 0.01 µM | –
